pIC50: −log10 of the molar value. Where two headings read alike, the source gives them in different places.
Experiments:
human MAGL = molecular target: T1, human MAGL (Homo sapiens, UniProt Q99685); test: MAGL inhibition potency assay with 4-nitrophenyl acetate (4NPA) substrate, absorbance 405 nm; format: biochemical; conditions: read-out: MAGL Potency (Detection Method)
T1 construct: recombinant MAGL enzyme (aa 2-303 RBC, internal preparation)
T1 sequence (Q99685 2-303): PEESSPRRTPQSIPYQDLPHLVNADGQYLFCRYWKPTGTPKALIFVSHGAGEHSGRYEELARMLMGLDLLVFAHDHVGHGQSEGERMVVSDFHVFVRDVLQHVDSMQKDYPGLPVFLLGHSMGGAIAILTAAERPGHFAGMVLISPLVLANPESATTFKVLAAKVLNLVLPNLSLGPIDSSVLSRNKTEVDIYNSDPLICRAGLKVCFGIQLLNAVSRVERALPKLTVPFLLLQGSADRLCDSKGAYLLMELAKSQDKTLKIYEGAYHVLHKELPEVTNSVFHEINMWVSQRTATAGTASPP

MAGL enzyme = molecular target: T2, MAGL enzyme (Homo sapiens, UniProt Q99685); test: MAGL reversible inhibition assay (return of activity after washout); format: biochemical; conditions: for A: degree to which MAGL enzymatic activity returned following washout: pre-washout compound concentration 1 μM, relative to control without inhibitor
T2 sequence (Q99685 1-303): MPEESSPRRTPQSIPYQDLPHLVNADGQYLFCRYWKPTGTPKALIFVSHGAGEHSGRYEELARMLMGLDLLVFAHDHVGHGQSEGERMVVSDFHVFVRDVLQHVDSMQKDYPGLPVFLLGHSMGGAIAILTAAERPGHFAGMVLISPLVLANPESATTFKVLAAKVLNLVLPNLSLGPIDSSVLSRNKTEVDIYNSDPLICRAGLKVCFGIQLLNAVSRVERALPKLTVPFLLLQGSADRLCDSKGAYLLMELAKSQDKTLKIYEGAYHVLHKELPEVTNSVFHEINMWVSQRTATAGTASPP
Description: Example 24: Measuring Reversible MAUL Inhibition (IC50)
The reversible mechanism of MAGL inhibition of a test compound of Formula (I) can be determined. Flag-tagged MAGL enzyme will be immobilized on anti-Flag beads. […] Colorimetric substrate (4-NPA) will be added and the reaction monitored on a plate reader for 30 minutes to verify complete inhibition. Immobilized enzyme will then be washed thoroughly to remove the inhibitor, and fresh substrate will be added. The reaction will be monitored for an additional 30 minutes; returning enzymatic activity will indicate reversibility of inhibition.
Determining MAGL Reversible Inhibition:
MAGL enzyme was incubated for 30 minutes in the presence of 40× the IC50 concentration of inhibitor. […] Substrate was added and the reaction was monitored for 30 minutes.

[1] = Pharmacokinetic study of compounds in mice (brain exposure); format: in vivo, male C57BL/6 mice; conditions: male, C57BL/6, mouse, oral, 5 mg/kg, Protocols B-E
Description: Example 25: Pharmacokinetic Study of Compounds in Mice
Healthy male C57BL/6 mice (8-12 weeks old) weighing between 17 to 35 g were procured from Global, India. Temperature and humidity were maintained at 22±3° C. and 30-70%, respectively and illumination was controlled to give a sequence of 12 hr light and 12 hr dark cycle. Temperature and humidity were recorded by auto-controlled data logger system. All the animals were provided laboratory rodent diet. Reverse osmosis water treated with ultraviolet light was provided ad libitum.
Protocol A: Twenty-four male mice were divided into two groups as; Group 1: 30 mg/kg/IP; Plasma and brain; Number of animals=12; Animal #1-12. Group 2: 30 mg/kg/PO; Plasma and brain; Number of animals=12; Animal #13-24. Animals in Group 1 were administered intraperitoneally with solution formulation of PSY-05-00074-001 in 5% NMP, 5% Solutol HS-15 and 90% normal saline at […] dose. Animals in Group 2 were administered orally with solution formulation of PSY-05-00074-001 in 5% NMP, 5% Solutol HS-15 and 90% normal saline at 30 mg/kg dose. Blood samples (approximately 60 μL) were collected under light isoflurane anesthesia from retro orbital plexus at 0.25, 0.5, 1, 2, 4 and 8 hr (IP and PO). Plasma samples were separated by centrifugation of whole blood and stored below −70° C. until bioanalysis. Immediately after collection of blood from intraperitoneal and oral group animals, animals were euthanized with excess CO2 and brain samples were collected from set of two mice at each time point. Brain samples were divided into two parts. Half brain samples were homogenized using ice-cold phosphate buffer saline (pH-7.4) and homogenates were stored below −70±10° C. until analysis. Total homogenate volume was three times the brain weight. Other part of brain was stored below −70±10° C. for further analysis. All samples were processed for analysis by protein precipitation using acetonitrile and analyzed with fit-for-purpose LC/MS/MS method (LLOQ-2.02 ng/mL for plasma and 6.06 ng/g for brain). Pharmacokinetic parameters were calculated using the non-compartmental analysis tool of Phoenix WinNonlin®.
Protocol B: Thirty six mice were included into the study and divided in to three groups as Group 1 (n=12), Group 2 (n=12) and Group 3 (n=12) with n=2 mice per time-point design. Animals in Group 1 were administered intravenously with solution formulation of PSY-05-00414-001 at 5 mg/kg dose. Animals in Group 2 were administered orally with solution formulation of PSY-05-00414-001 at a dose of 5 mg/kg. Animals in Group 3 were administered intraperitoneally with solution formulation of PSY-05-00414-001 at 5 mg/kg dose. The formulation vehicle for all the three groups was 5% NMP, 5% Solutol HS-15 and 90% normal saline. Blood samples (approximately 60 μL) were collected under light isoflurane anesthesia from two mice at 0.25, 0.5, 1, 2, 4 and 8 h. Plasma was harvested by centrifugation of blood and stored at −70±10° C. until analysis. After blood collection, brain was perfused and isolated at 0.25, 0.5, 1, 2, 4 and 8 h. Brain samples were dipped thrice in ice-cold phosphate buffer saline, blotted dry and cut in to two equal portion. Half-brain samples from each time-point were weighed and homogenized using ice-cold phosphate buffer saline with twice volume of brain weight making the total homogenate three volumes and stored below −70±10′° C. until analysis. Remaining half-portions of brain samples was snap freeze and kept in −70±10° C. until further confirmation from client. Plasma and brain samples were quantified by fit-for-purpose LC-MS/MS method (LLOQ: 1.01 ng/mL for plasma and 2.02 ng/mL for brain).
Protocol C: Fifty four male mice were included in study and divided in to three groups as Group 1 (n=18), Group 2 (n=18) and Group 3 (n=18) with 3 mice/time point design. […]

Cc1cc(C2CC3(C2)CN(C(=O)c2ccc(F)cc2OCC(F)(F)F)C3)n(-c2ccccc2C)n1 [Compound 178, [4-fluoro-2-(2,2,2-trifluoroethoxy)phenyl]{6-[3-methyl-1-(o-tolyl)-5-pyrazolyl]-2-aza-2-spiro[3.3]heptyl}methanone]
pIC50 (human MAGL; Method 2: Cayman Chemical MAGL enzyme prep, 10 nM enzyme): > 7.30
pIC50 (human MAGL; Method 3: Reaction Biology MAGL enzyme prep, 10 nM enzyme): > 7.30
pIC50 (human MAGL; Method 5: Cayman Chemical MAGL enzyme prep, 25 nM enzyme): > 7.30

Cc1cnn(C2CC3(C2)CN(C(=O)c2cc(O)ccc2F)C3)c1-c1cc(F)ccc1Cl (single isomer, unassigned) [Compound 519, (6-(5-(2-chloro-5-fluorophenyl)-4-methyl-1H-pyrazol-1-yl)-2-azaspiro [3.3]heptan-2-yl) (2-fluoro-5-hydroxyphenyl) methanone]
A: degree to which MAGL enzymatic activity returned following washout (MAGL enzyme): 155%

O=C(Oc1ccc([N+](=O)[O-])cc1)N1CCC(C(O)(c2ccc3c(c2)OCO3)c2ccc3c(c2)OCO3)CC1 [JZL-184, reference compound]
B: % MAGL activity returning after washout (MAGL enzyme; immediately following a 30 minute washout, relative to control (no inhibitor before washout), pre-washout 1 μM): <1%
A: degree to which MAGL enzymatic activity returned following washout (MAGL enzyme): complete lack of return of MAGL enzymatic activity

O=C(c1cc(O)ccc1F)N1CC2(CC(n3cc(C4CC4)c(-c4ccccc4F)n3)C2)C1 (single isomer, unassigned) [Compound 493, (6-(4-Cyclopropyl-3-(2-fluorophenyl)-1H-pyrazol-1-yl)-2-azaspiro [3.3]heptan-2-yl) (2-fluoro-5-hydroxyphenyl) methanone]
A: degree to which MAGL enzymatic activity returned following washout (MAGL enzyme): 47%

Cc1cn(C2CC3(C2)CN(C(=O)c2cc(O)ccc2F)C3)nc1-c1cc(F)ccc1Cl [Compound 520, (6-(3-(2-chloro-5-fluorophenyl)-4-methyl-1H-pyrazol-1-yl)-2-azaspiro [3.3]heptan-2-yl)(2-fluoro-5-hydroxyphenyl) methanone]
A: degree to which MAGL enzymatic activity returned following washout (MAGL enzyme): 100%

O=C(c1cc(O)ccc1F)N1CC2(CC(n3cc(C(F)(F)F)c(-c4ccccc4F)n3)C2)C1 (single isomer, unassigned) [Compound 473, (2-fluoro-5-hydroxyphenyl)(6-(3-(2-fluorophenyl)-4-(trifluoromethyl) 1H-pyrazol-1-yl)-2-azaspiro[3.3]heptan-2-yl)methanone]
A: degree to which MAGL enzymatic activity returned following washout (MAGL enzyme): 41%
AUC(0-t) [1]: 464 ng·h/mL
Cmax [1]: 172 ng/g
